BigSolDB 2.1

**Q.** Which solubility (mole fraction) (in acetone, 273.15 K) does the source give for `Cc1cccc2sc(NN)nc12` here?
**A.** 0.00958

**Q.** And the solubility (mole fraction) (in acetone, 278.15 K)?
**A.** 0.0118

**Q.** What about the solubility (mole fraction) (in acetone, 283.15 K) of the same compound?
**A.** 0.0142

**Q.** And the solubility (mole fraction) (in acetone, 288.15 K)?
**A.** 0.0172

**Q.** What about the solubility (mole fraction) (in acetone, 293.15 K) of the same compound?
**A.** 0.0203

**Q.** What about the solubility (mole fraction) (in acetone, 298.15 K) of the same compound?
**A.** 0.024

**Q.** And the solubility (mole fraction) (in acetone, 303.15 K)?
**A.** 0.0285

**Q.** And the solubility (mole fraction) (in acetone, 308.15 K)?
**A.** 0.0335

**Q.** And the solubility (mole fraction) (in acetone, 313.15 K)?
**A.** 0.0391

**Q.** And the solubility (mole fraction) (in acetone, 318.15 K)?
**A.** 0.0456

**Q.** And the solubility (mole fraction) (in ethanol, 273.15 K)?
**A.** 0.000807

**Q.** And the solubility (mole fraction) (in ethanol, 278.15 K)?
**A.** 0.00103

**Q.** What about the solubility (mole fraction) (in ethanol, 283.15 K) of the same compound?
**A.** 0.00131

**Q.** What about the solubility (mole fraction) (in ethanol, 288.15 K) of the same compound?
**A.** 0.00165

**Q.** What about the solubility (mole fraction) (in ethanol, 293.15 K) of the same compound?
**A.** 0.00203

**Q.** What about the solubility (mole fraction) (in ethanol, 298.15 K) of the same compound?
**A.** 0.00252

**Q.** And the solubility (mole fraction) (in ethanol, 303.15 K)?
**A.** 0.00313

**Q.** What about the solubility (mole fraction) (in ethanol, 308.15 K) of the same compound?
**A.** 0.00377

**Q.** And the solubility (mole fraction) (in ethanol, 313.15 K)?
**A.** 0.0046

**Q.** What about the solubility (mole fraction) (in ethanol, 318.15 K) of the same compound?
**A.** 0.00555

**Q.** And the solubility (mole fraction) (in ethyl acetate, 273.15 K)?
**A.** 0.00359

**Q.** What about the solubility (mole fraction) (in ethyl acetate, 278.15 K) of the same compound?
**A.** 0.00453

**Q.** What about the solubility (mole fraction) (in ethyl acetate, 283.15 K) of the same compound?
**A.** 0.00569

**Q.** And the solubility (mole fraction) (in ethyl acetate, 288.15 K)?
**A.** 0.00696

**Q.** And the solubility (mole fraction) (in ethyl acetate, 293.15 K)?
**A.** 0.00848

**Q.** What about the solubility (mole fraction) (in ethyl acetate, 298.15 K) of the same compound?
**A.** 0.0101

**Q.** And the solubility (mole fraction) (in ethyl acetate, 303.15 K)?
**A.** 0.0124

**Q.** And the solubility (mole fraction) (in ethyl acetate, 308.15 K)?
**A.** 0.0147

**Q.** And the solubility (mole fraction) (in ethyl acetate, 313.15 K)?
**A.** 0.0176

**Q.** And the solubility (mole fraction) (in ethyl acetate, 318.15 K)?
**A.** 0.0209

**Q.** What about the solubility (mole fraction) (in isopropanol, 273.15 K) of the same compound?
**A.** 0.000928

**Q.** What about the solubility (mole fraction) (in isopropanol, 278.15 K) of the same compound?
**A.** 0.00123

**Q.** What about the solubility (mole fraction) (in isopropanol, 283.15 K) of the same compound?
**A.** 0.00153

**Q.** And the solubility (mole fraction) (in isopropanol, 288.15 K)?
**A.** 0.00191

**Q.** What about the solubility (mole fraction) (in isopropanol, 293.15 K) of the same compound?
**A.** 0.00235

**Q.** What about the solubility (mole fraction) (in isopropanol, 298.15 K) of the same compound?
**A.** 0.00288

**Q.** What about the solubility (mole fraction) (in isopropanol, 303.15 K) of the same compound?
**A.** 0.00353

**Q.** What about the solubility (mole fraction) (in isopropanol, 308.15 K) of the same compound?
**A.** 0.00429

**Q.** And the solubility (mole fraction) (in isopropanol, 313.15 K)?
**A.** 0.00519

**Q.** And the solubility (mole fraction) (in isopropanol, 318.15 K)?
**A.** 0.0062

**Q.** And the solubility (mole fraction) (in methanol, 273.15 K)?
**A.** 0.000589

**Q.** And the solubility (mole fraction) (in methanol, 278.15 K)?
**A.** 0.000758

**Q.** And the solubility (mole fraction) (in methanol, 283.15 K)?
**A.** 0.00095

**Q.** What about the solubility (mole fraction) (in methanol, 288.15 K) of the same compound?
**A.** 0.00119

**Q.** And the solubility (mole fraction) (in methanol, 293.15 K)?
**A.** 0.00151

**Q.** What about the solubility (mole fraction) (in methanol, 298.15 K) of the same compound?
**A.** 0.00185

**Q.** What about the solubility (mole fraction) (in methanol, 303.15 K) of the same compound?
**A.** 0.00232

**Q.** What about the solubility (mole fraction) (in methanol, 308.15 K) of the same compound?
**A.** 0.00284

**Q.** And the solubility (mole fraction) (in methanol, 313.15 K)?
**A.** 0.00348

**Q.** What about the solubility (mole fraction) (in methanol, 318.15 K) of the same compound?
**A.** 0.00422

**Q.** What about the solubility (mole fraction) (in n-butanol, 273.15 K) of the same compound?
**A.** 0.00137

**Q.** And the solubility (mole fraction) (in n-butanol, 278.15 K)?
**A.** 0.00168

**Q.** And the solubility (mole fraction) (in n-butanol, 283.15 K)?
**A.** 0.00216

**Q.** And the solubility (mole fraction) (in n-butanol, 288.15 K)?
**A.** 0.00263

**Q.** And the solubility (mole fraction) (in n-butanol, 293.15 K)?
**A.** 0.00329

**Q.** And the solubility (mole fraction) (in n-butanol, 298.15 K)?
**A.** 0.00403

**Q.** And the solubility (mole fraction) (in n-butanol, 303.15 K)?
**A.** 0.00505

**Q.** What about the solubility (mole fraction) (in n-butanol, 308.15 K) of the same compound?
**A.** 0.00616

**Q.** And the solubility (mole fraction) (in n-butanol, 313.15 K)?
**A.** 0.00755

**Q.** What about the solubility (mole fraction) (in n-butanol, 318.15 K) of the same compound?
**A.** 0.00904

**Q.** What about the solubility (mole fraction) (in n-propanol, 273.15 K) of the same compound?
**A.** 0.00115

**Q.** And the solubility (mole fraction) (in n-propanol, 278.15 K)?
**A.** 0.00143

**Q.** And the solubility (mole fraction) (in n-propanol, 283.15 K)?
**A.** 0.00178

**Q.** What about the solubility (mole fraction) (in n-propanol, 288.15 K) of the same compound?
**A.** 0.00218

**Q.** And the solubility (mole fraction) (in n-propanol, 293.15 K)?
**A.** 0.00272

**Q.** And the solubility (mole fraction) (in n-propanol, 298.15 K)?
**A.** 0.0033

**Q.** What about the solubility (mole fraction) (in n-propanol, 303.15 K) of the same compound?
**A.** 0.00395

**Q.** What about the solubility (mole fraction) (in n-propanol, 308.15 K) of the same compound?
**A.** 0.00481

**Q.** What about the solubility (mole fraction) (in n-propanol, 313.15 K) of the same compound?
**A.** 0.00573

**Q.** And the solubility (mole fraction) (in n-propanol, 318.15 K)?
**A.** 0.00696

**Q.** And the solubility (mole fraction) (in toluene, 273.15 K)?
**A.** 0.00227

**Q.** What about the solubility (mole fraction) (in toluene, 278.15 K) of the same compound?
**A.** 0.00276

**Q.** What about the solubility (mole fraction) (in toluene, 283.15 K) of the same compound?
**A.** 0.00366

**Q.** What about the solubility (mole fraction) (in toluene, 288.15 K) of the same compound?
**A.** 0.00473

**Q.** What about the solubility (mole fraction) (in toluene, 293.15 K) of the same compound?
**A.** 0.00583

**Q.** And the solubility (mole fraction) (in toluene, 298.15 K)?
**A.** 0.00736

**Q.** What about the solubility (mole fraction) (in toluene, 303.15 K) of the same compound?
**A.** 0.00925

**Q.** What about the solubility (mole fraction) (in toluene, 308.15 K) of the same compound?
**A.** 0.0116

**Q.** And the solubility (mole fraction) (in toluene, 313.15 K)?
**A.** 0.0145

**Q.** What about the solubility (mole fraction) (in toluene, 318.15 K) of the same compound?
**A.** 0.0178

**Q.** And the solubility (mole fraction) (in water, 273.15 K)?
**A.** 7.03e-06

**Q.** What about the solubility (mole fraction) (in water, 278.15 K) of the same compound?
**A.** 9.04e-06

**Q.** What about the solubility (mole fraction) (in water, 283.15 K) of the same compound?
**A.** 1.18e-05

**Q.** And the solubility (mole fraction) (in water, 288.15 K)?
**A.** 1.51e-05

**Q.** And the solubility (mole fraction) (in water, 293.15 K)?
**A.** 1.96e-05

**Q.** What about the solubility (mole fraction) (in water, 298.15 K) of the same compound?
**A.** 2.56e-05

**Q.** And the solubility (mole fraction) (in water, 303.15 K)?
**A.** 3.21e-05

**Q.** What about the solubility (mole fraction) (in water, 308.15 K) of the same compound?
**A.** 4.05e-05

**Q.** And the solubility (mole fraction) (in water, 313.15 K)?
**A.** 5.05e-05

**Q.** What about the solubility (mole fraction) (in water, 318.15 K) of the same compound?
**A.** 6.25e-05
